Measurements: PMC2248166, “Quantitative peptide binding motifs for 19 human and mouse MHC class I molecules derived using positional scanning combinatorial peptide libraries” (Immunome Research, 2008)
pIC50: −log10 of the molar value. Where a SMILES comes first, the peptide text is derived from it.

Experiments:
Assay in all cases: biochemical
Type in all cases: binding
HLA A*3001 = HLA A*3001 (Homo sapiens, UniProt P04439, D140H/D185E/E176W/F33S/G80R/H175R/K168Q/R138E/R41S)
HLA B*0801 = HLA B*0801 (Homo sapiens, UniProt P01889, A93T/A95T/D138N/E176V/E187T/K202T/Q94N/R180D/S35A/V36M/Y33D/Y91F)
HLA B*1503 = HLA B*1503 (Homo sapiens, UniProt P01889, A329T/A93T/A95T/C349S/D201E/D98Y/E187L/E204Q/K202T/N87E/Q94N/R155S/R180L/S121R/S35A/V306I/V36M/Y140S/Y91S)

Sequence of HLA A*3001 (P04439 25-365 limits assumed, stated change not applied): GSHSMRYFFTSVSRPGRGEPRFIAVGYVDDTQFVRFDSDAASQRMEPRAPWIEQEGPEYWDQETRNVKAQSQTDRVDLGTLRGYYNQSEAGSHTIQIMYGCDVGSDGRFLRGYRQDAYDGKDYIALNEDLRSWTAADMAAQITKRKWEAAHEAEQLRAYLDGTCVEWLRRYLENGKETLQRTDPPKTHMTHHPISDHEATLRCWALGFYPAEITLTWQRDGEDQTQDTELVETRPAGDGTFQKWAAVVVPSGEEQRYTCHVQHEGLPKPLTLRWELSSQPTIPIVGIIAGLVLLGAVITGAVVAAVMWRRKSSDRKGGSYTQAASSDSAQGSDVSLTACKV

SMILES | pIC50 (HLA A*3001) | pIC50 (HLA B*0801) | pIC50 (HLA B*1503)
CSCC[C@H](N)C(=O)N[C@@H](Cc1ccccc1)C(=O)N[C@@H](CCCNC(=N)N)C(=O)N[C@@H](CCCCN)C(=O)N[C@@H](CCCCN)C(=O)N[C@@H](CCCNC(=N)N)C(=O)N[C@@H](CC(C)C)C(=O)N[C@@H](Cc1ccccc1)C(=O)N[C@@H](CC(C)C)C(=O)O [3102.0580] (H-MFRKKRLFL-OH) | 8.00 | 8.96 | 
CC[C@H](C)[C@H](NC(=O)[C@@H](N)Cc1ccccc1)C(=O)N[C@@H](Cc1ccccc1)C(=O)N[C@@H](CC(C)C)C(=O)N[C@@H](CCCCN)C(=O)N[C@@H](CCCCN)C(=O)N[C@@H](CC(N)=O)C(=O)N[C@@H](CCC(=O)O)C(=O)N[C@@H](CC(C)C)C(=O)O [3102.0673] (H-FIFLKKNEL-OH) | 7.36 | 7.01 | 
CC[C@H](C)[C@H](N)C(=O)N[C@@H](CO)C(=O)N[C@@H](CCC(=O)O)C(=O)N[C@@H](CO)C(=O)N[C@@H](CCCNC(=N)N)C(=O)N[C@@H](Cc1ccccc1)C(=O)N[C@@H](CCC(N)=O)C(=O)N[C@@H](CO)C(=O)N[C@@H](CC(C)C)C(=O)O [3102.0767] (H-ISESRFQSL-OH) |  | 7.40 | 
CC[C@H](C)[C@H](NC(=O)[C@H](CCCCN)NC(=O)[C@H](Cc1c[nH]cn1)NC(=O)[C@H](CCCCN)NC(=O)[C@@H](NC(=O)[C@H](CCCCN)NC(=O)[C@H](CO)NC(=O)[C@@H](N)CCSC)[C@@H](C)CC)C(=O)N[C@@H](Cc1ccccc1)C(=O)O [3102.0769] (H-MSKIKHKIF-OH) |  | 9.08 | 
CC(C)C[C@H](NC(=O)[C@H](C)NC(=O)[C@H](CO)NC(=O)[C@H](Cc1ccccc1)NC(=O)[C@H](CCCCN)NC(=O)[C@H](CCCNC(=N)N)NC(=O)[C@H](CC(C)C)NC(=O)[C@H](Cc1ccc(O)cc1)NC(=O)[C@@H](N)CO)C(=O)O [3102.0770] (H-SYLRKFSAL-OH) |  | 8.22 | 
CC(C)C[C@H](NC(=O)[C@H](Cc1ccccc1)NC(=O)[C@H](CCC(=O)O)NC(=O)[C@H](Cc1ccccc1)NC(=O)[C@H](CCCCN)NC(=O)[C@H](CCCCN)NC(=O)[C@H](CC(C)C)NC(=O)[C@H](CC(C)C)NC(=O)CN)C(=O)O [3102.0771] (H-GLLKKFEFL-OH) |  | 7.33 | 
CC[C@H](C)[C@H](NC(=O)[C@H](CCC(=O)O)NC(=O)[C@H](CCCNC(=N)N)NC(=O)[C@H](CC(C)C)NC(=O)[C@@H](N)CCC(=O)O)C(=O)N[C@@H](Cc1ccccc1)C(=O)N[C@@H](CCCNC(=N)N)C(=O)N[C@@H](CCCNC(=N)N)C(=O)N[C@@H](CC(C)C)C(=O)O [3102.0772] (H-ELREIFRRL-OH) |  | 7.57 | 
CC[C@H](C)[C@H](NC(=O)[C@H](CO)NC(=O)CNC(=O)[C@H](CCCCN)NC(=O)[C@H](CCCNC(=N)N)NC(=O)[C@H](CC(C)C)NC(=O)[C@H](CCCNC(=N)N)NC(=O)[C@H](CCCNC(=N)N)NC(=O)[C@@H](N)Cc1ccccc1)C(=O)O [3102.0773] (H-FRRLRKGSI-OH) |  | 8.52 | 
CSCC[C@H](NC(=O)[C@@H](N)CCCNC(=N)N)C(=O)N[C@@H](CCCNC(=N)N)C(=O)N[C@@H](Cc1ccccc1)C(=O)N[C@@H](CCCCN)C(=O)N[C@@H](CCCCN)C(=O)NCC(=O)N[C@@H](C)C(=O)N[C@H](C(=O)O)C(C)C [3102.0775] (H-RMRFKKGAV-OH) |  | 8.27 | 
CSCC[C@H](NC(=O)[C@H](C)NC(=O)[C@@H](N)CCSC)C(=O)N[C@@H](Cc1ccccc1)C(=O)N[C@@H](Cc1ccc(O)cc1)C(=O)N[C@@H](C)C(=O)N[C@@H](Cc1c[nH]cn1)C(=O)N[C@@H](C)C(=O)N[C@@H](CC(C)C)C(=O)O [3102.0776] (H-MAMFYAHAL-OH) |  | 8.92 | 
CC[C@H](C)[C@H](N)C(=O)N[C@@H](CCSC)C(=O)N[C@@H](CCCNC(=N)N)C(=O)N[C@@H](CCSC)C(=O)N[C@@H](CCCNC(=N)N)C(=O)N[C@@H](Cc1ccccc1)C(=O)N[C@@H](CCCCN)C(=O)N[C@@H](CCCCN)C(=O)NCC(=O)O [3102.0777] (H-IMRMRFKKG-OH) |  | 7.21 | 
CC[C@H](C)[C@H](NC(=O)[C@H](CC(N)=O)NC(=O)[C@@H](N)CCCNC(=N)N)C(=O)N[C@@H](C)C(=O)N[C@@H](CCCNC(=N)N)C(=O)N[C@@H](Cc1c[nH]cn1)C(=O)N[C@@H](CC(C)C)C(=O)N[C@@H](C)C(=O)N[C@@H](CC(C)C)C(=O)O [3102.0780] (H-RNIARHLAL-OH) |  | 8.49 | 
CC[C@H](C)[C@H](NC(=O)[C@@H](N)Cc1ccccc1)C(=O)N[C@@H](CCCCN)C(=O)N[C@@H](CCC(N)=O)C(=O)NCC(=O)N[C@@H](Cc1ccccc1)C(=O)N[C@@H](CC(N)=O)C(=O)N[C@@H](CC(N)=O)C(=O)N[C@@H](CC(C)C)C(=O)O [3102.0781] (H-FIKQGFNNL-OH) |  | 9.04 | 
CC[C@H](C)[C@H](NC(=O)[C@H](CC(C)C)NC(=O)[C@@H](N)CC(N)=O)C(=O)N[C@H](C(=O)N[C@@H](Cc1c[nH]cn1)C(=O)N[C@H](C(=O)N[C@@H](C)C(=O)N[C@@H](C)C(=O)N[C@@H](CC(C)C)C(=O)O)[C@@H](C)O)[C@@H](C)CC [3102.0785] (H-NLIIHTAAL-OH) |  | 8.80 | 
CSCC[C@H](NC(=O)[C@H](CCCNC(=N)N)NC(=O)[C@H](CCCCN)NC(=O)[C@H](CO)NC(=O)[C@H](CCCCN)NC(=O)[C@H](C)NC(=O)[C@@H](N)Cc1ccc(O)cc1)C(=O)N[C@@H](C)C(=O)N[C@@H](CCC(=O)O)C(=O)O [3102.0786] (H-YAKSKRMAE-OH) |  | 7.51 | 
CC[C@H](C)[C@H](NC(=O)[C@@H](N)CCCNC(=N)N)C(=O)N[C@@H](CC(C)C)C(=O)N[C@@H](Cc1ccccc1)C(=O)N[C@@H](CCCNC(=N)N)C(=O)N[C@@H](CCCCN)C(=O)N1CCC[C@H]1C(=O)N[C@@H](CO)C(=O)N[C@@H](CC(C)C)C(=O)O [3102.0787] (H-RILFRKPSL-OH) |  | 7.49 | 
CC[C@H](C)[C@H](NC(=O)[C@H](Cc1ccccc1)NC(=O)[C@H](CC(C)C)NC(=O)[C@@H](NC(=O)[C@H](CC(C)C)NC(=O)[C@H](Cc1ccccc1)NC(=O)[C@@H]1CCCN1C(=O)[C@@H](NC(=O)[C@@H](N)CC(C)C)[C@@H](C)CC)[C@@H](C)CC)C(=O)O [3102.0791] (H-LIPFLILFI-OH) |  | 7.30 | 
CC[C@H](C)[C@H](NC(=O)[C@H](Cc1c[nH]cn1)NC(=O)[C@@H](NC(=O)[C@@H](N)CCSC)C(C)C)C(=O)N[C@@H](Cc1ccc(O)cc1)C(=O)N[C@@H](Cc1ccccc1)C(=O)N[C@H](C(=O)N[C@@H](CO)C(=O)N[C@@H](CC(C)C)C(=O)O)C(C)C [3102.0878] (H-MVHIYFVSL-OH) |  | 8.85 | 
CC[C@H](C)[C@H](NC(=O)[C@H](Cc1c[nH]cn1)NC(=O)[C@H](CC(N)=O)NC(=O)[C@H](CCCCN)NC(=O)[C@H](CCCNC(=N)N)NC(=O)[C@H](Cc1ccccc1)NC(=O)[C@H](CCCNC(=N)N)NC(=O)[C@@H](NC(=O)[C@@H](N)Cc1ccc(O)cc1)[C@@H](C)CC)C(=O)O [3102.0888] (H-YIRFRKNHI-OH) |  | 8.85 | 
CC[C@H](C)[C@H](NC(=O)[C@@H](N)Cc1ccccc1)C(=O)N[C@@H](C)C(=O)N[C@@H](CCCCN)C(=O)N[C@@H](Cc1c[nH]cn1)C(=O)N[C@@H](Cc1ccccc1)C(=O)N[C@@H](CC(C)C)C(=O)N[C@@H](CCC(=O)O)C(=O)N[C@@H](CC(C)C)C(=O)O [3102.0900] (H-FIAKHFLEL-OH) |  | 8.89 | 
CC[C@H](C)[C@H](NC(=O)[C@H](Cc1ccccc1)NC(=O)[C@H](CCCCN)NC(=O)[C@@H](NC(=O)[C@@H](N)Cc1ccc(O)cc1)[C@@H](C)CC)C(=O)N[C@@H](Cc1ccccc1)C(=O)N[C@@H](CC(C)C)C(=O)N[C@@H](CCC(N)=O)C(=O)N[C@@H](CCSC)C(=O)O [3102.0918] (H-YIKFIFLQM-OH) |  | 8.07 | 
CC[C@H](C)[C@H](NC(=O)[C@H](Cc1ccc(O)cc1)NC(=O)[C@H](C)NC(=O)[C@H](Cc1ccccc1)NC(=O)[C@H](Cc1ccc(O)cc1)NC(=O)[C@H](Cc1ccc(O)cc1)NC(=O)[C@H](CCCNC(=N)N)NC(=O)[C@H](CCC(=O)O)NC(=O)CN)C(=O)O [3102.0936] (H-GERYYFAYI-OH) |  | 8.16 | 
CC[C@H](C)[C@H](NC(=O)[C@H](CCC(N)=O)NC(=O)[C@H](CCC(=O)O)NC(=O)[C@H](Cc1ccccc1)NC(=O)[C@H](Cc1ccc(O)cc1)NC(=O)[C@H](CC(=O)O)NC(=O)[C@H](CCCNC(=N)N)NC(=O)[C@H](CC(C)C)NC(=O)[C@@H](N)CCC(=O)O)C(=O)O [3102.0939] (H-ELRDYFEQI-OH) |  | 7.89 | 
CC[C@H](C)[C@H](NC(=O)[C@@H](NC(=O)[C@H](CS)NC(=O)[C@@H](NC(=O)[C@H](CCCNC(=N)N)NC(=O)[C@H](CO)NC(=O)[C@H](CCCCN)NC(=O)[C@H](CO)NC(=O)[C@@H](N)CC(N)=O)[C@@H](C)CC)C(C)C)C(=O)O [3102.0966] (H-NSKSRICVI-OH) |  | 7.96 | 
N=C(N)NCCC[C@H](NC(=O)[C@H](Cc1ccc(O)cc1)NC(=O)[C@H](CCCNC(=N)N)NC(=O)[C@H](CCCNC(=N)N)NC(=O)[C@H](CO)NC(=O)[C@@H](N)CO)C(=O)N[C@@H](CS)C(=O)N[C@@H](CO)C(=O)N[C@@H](Cc1ccccc1)C(=O)O [3102.1158] (H-SSRRYRCSF-OH) |  | 7.92 | 
CC[C@H](C)[C@H](N)C(=O)N[C@@H](CC(C)C)C(=O)N[C@@H](Cc1c[nH]cn1)C(=O)N[C@@H](Cc1c[nH]cn1)C(=O)N[C@@H](Cc1c[nH]cn1)C(=O)N[C@@H](CCCNC(=N)N)C(=O)N[C@@H](CC(N)=O)C(=O)N[C@H](C(=O)N[C@@H](Cc1ccccc1)C(=O)O)C(C)C [3102.1250] (H-ILHHHRNVF-OH) |  | 7.89 | 8.89
CSCC[C@H](NC(=O)[C@H](CC(=O)O)NC(=O)[C@@H](NC(=O)[C@H](Cc1ccccc1)NC(=O)[C@H](Cc1c[nH]cn1)NC(=O)[C@H](CCSC)NC(=O)[C@H](CO)NC(=O)[C@H](CCC(N)=O)NC(=O)[C@@H](N)Cc1ccccc1)[C@@H](C)O)C(=O)O [3102.1283] (H-FQSMHFTDM-OH) |  | 7.08 | 8.29
